Experimental findings from US20240385182A1, “MASKED FLUOROGENIC LIPID COMPOUNDS, LIPID PARTICLES COMPRISING THE SAME, AND METHODS OF USE THEREOF” (Rutgers, The State University of New Jersey, priority 2023, published 2024) are described below.

The subject of one data set is RAW-264.7 cells. The data set is described as follows: Confocal imaging and colocalization in live RAW-264.7 cells. The class given is cell-based, murine. On the procedure:
FIGS. 10A-10E: confocal imaging of lipid environments targeted by ONOO^− in live RAW246.7 cells. Cells were seeded into glass microscope dishes, incubated with LNPs (50 μM) and stained with organelle trackers and/or actin dye prior to imaging. LNPs obtained from a 47.5:47.5:5.0 molar ratio of DOTMA, DOPE, and DPPC-TC-ONOO^−. FIG. 10A: cells treated with LNPs, stimulated with LPS. Time coarse images acquired after addition of LPS. FIG. 10B: cells treated with LNPs and 1400 W. FIG. 10C: cells treated with LNPs, then with 1400 W and LPS. FIGS. 10D-10E: quantitative colocalization study of cells treated with LNPs and stimulated with LPS. Pearson's correlation coefficient (PCC) was calculated for quantitative assessment of colocalization using organelle trackers as described above. Scale bars=20 μm (FIGS. 10A-10D) or 5 μm (FIG. 10E). With the utility of DPPC-TC-ONOO^− proven in synthetic protocell membranes, incorporation into live HeLa and RAW 264.7 cells was sought, which are relevant to redox-induced stress and have well-recognized pathways for RNS and ROS production. Lipid nanoparticles (LNPs) (˜100 nm in diameter) was used to deliver DPPC-TC-ONOO− into cells. This method circumvented the limited solubility of DPPC-TC-ONOO− due to the relatively hydrophobic butanone-coumarin motif. LNPs were obtained via sonication from 1,2-di-O-octadecenyl-3-trimethylammonium propane (DOTMA), 1,2-dioleoyl-sn-glycero-3-phosphoethanolamine (DOPE), and DPPC-TC-ONOO− (47.5:47.5:5.0 molar ratio), which were hydrated with a 300 mM sucrose solution. DOTMA and DOPE were chosen as the carrier lipids due to their cationic/zwitterionic natures, which has been postulated to enhance uptake through the cell membrane. The impact of different LNP compositions and incubation times on the cellular incorporation of DPPC-TC-ONOO^− was assessed. […] Specifically, LNPs containing greater than 10 mol % DPPC-TC-ONOO− were considerably more heterogenous in size (up to […] observed, in contrast to ˜100 nm) and nonuniform in vesicle lamellarity. Those with less than 4 mol % DPPC-TC-ONOO− led to insufficient fluorescence signal. To balance these counteracting factors, 5 mol % DPPC-TC-ONOO− was used, with 47.5 mol % DOTMA and DOPE, each. In these initial assays, cells were incubated with LNPs for up to 15 hours to complete the uptake and intracellular localization of DPPC-TC-ONOO−. Shorter incubation times (3-to-5 hours) led to its uptake but not subcellular localization. […] However, high serum concentration in DMEM caused interference between LNPs and serum-protein, resulting in aggregate formation as observed by microscopy. To overcome this obstacle, LNPs (50 μM) were used in a mixture of 2/3 volumetric ratio of sucrose solution and Opti-MEM™, a reduced serum medium known to increase the efficiency of lipofection. The investigations were expanded to include murine-derived macrophage model, RAW-264.7 (FIGS. 10A-10E). RNS play important roles in macrophage activation and differentiation as part of the inflammatory response. Treatment of RAW-264.7 cells with LPS leads to the expression of iNOS, which produces NO·, which then reacts with O2·^−, generating ONOO−. RAW-264.7 cells were treated with LNPs containing either DPPC-TC (positive control) or DPPC-TC-ONOO^− (FIGS. 10A-10E). […] Assessment of DPPC-TC-ONOO^− localization in RAW-264.7 cells was carried out using the ER, Golgi, mitochondrion, and lysosome trackers (FIGS. 10D-10E).

Data set [1] can be described thus: Photophysical characterization of probes and uncaged forms (relative fluorescence quantum yield, extinction coefficient, brightness). The class given is physicochemical. In a few lines:
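Relative fluorescence quantum yields of caged probes and uncaged forms, referenced to coumarin 343 (ΦF 0.63 in ethanol) for triazole-coumarins and fluorescein (ΦF 0.79 in ethanol) for triazole-fluoresceins. Measured in Tris 50 mM, pH 7.5; coumarin largely aryloxide (TEG-TC pKa 7.1±0.1 by UV-Vis).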

On to `CCCCCCCCCCCCCCCC(=O)OCC(COP(=O)([O-])OCC[N+](C)(C)Cc1cn(-c2cc3ccc(OC(=O)Oc4ccc(CCC(=O)C(F)(F)F)cc4)cc3oc2=O)nn1)OC(=O)CCCCCCCCCCCCCCC` (racemic) [DPPC-TC-ONOO^−], for which the “signal in the DPPC-TC channel” value in the data set on RAW-264.7 cells (RAW-264.7, 1400 W only or 1400 W and LPS) is on record as “little-to-no signal”. This molecule gave a PCC in the data set with RAW-264.7 cells (RAW-264.7, ER tracker) of 0.946. The molecule also showed a PCC in the data set on RAW-264.7 cells (RAW-264.7, Golgi tracker) of 0.729. Besides, the fluorescence intensity result in the data set on RAW-264.7 cells (RAW-264.7, LNPs, stimulation with LPS over 16 hours) is “substantial increase in fluorescence intensity”. Moreover, in the data set with RAW-264.7 cells (RAW-264.7, LNPs, unstimulated), the “signal at 405/475 nm” value is listed as “negligible levels of signal”. In data set [1], the Emmax was found to be 471.2 nm, the Exmax is on record as 395.0 nm and the “Ext. Coeff.” value was determined as 2784 M⁻¹ cm⁻¹.
